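Five concentrations, 48 hours, 96-well plates. TGI: total growth inhibition.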
How the values were obtained:
Test in all cases: NCI anticancer screen, dose series, 48 h
OVCAR-5 ovarian = tested on: OVCAR-5 ovarian
RPMI-8226 leukemia = tested on: RPMI-8226 leukemia
CAKI-1 renal = tested on: CAKI-1 renal
SK-MEL-5 melanoma = tested on: SK-MEL-5 melanoma
SNB-19 CNS = tested on: SNB-19 CNS
MDA-N = tested on: MDA-N
NCI/ADR-RES ovarian = tested on: NCI/ADR-RES ovarian
CCRF-CEM leukemia = tested on: CCRF-CEM leukemia
HL-60(TB) leukemia = tested on: HL-60(TB) leukemia
M14 melanoma = tested on: M14 melanoma
SW-620 colon = tested on: SW-620 colon
KM12 colon = tested on: KM12 colon
K-562 leukemia = tested on: K-562 leukemia
HCC-2998 colon = tested on: HCC-2998 colon
SF-295 CNS = tested on: SF-295 CNS
HCT-116 colon = tested on: HCT-116 colon
NCI-H460 lung = tested on: NCI-H460 lung
OVCAR-8 ovarian = tested on: OVCAR-8 ovarian
SK-OV-3 ovarian = tested on: SK-OV-3 ovarian
MDA-MB-231 breast = tested on: MDA-MB-231 breast
T-47D breast = tested on: T-47D breast
HT29 colon = tested on: HT29 colon
DU-145 prostate = tested on: DU-145 prostate
OVCAR-4 ovarian = tested on: OVCAR-4 ovarian
U251 CNS = tested on: U251 CNS
HCT-15 colon = tested on: HCT-15 colon
HOP-62 NSCLC = tested on: HOP-62 NSCLC
UACC-257 melanoma = tested on: UACC-257 melanoma
ACHN renal = tested on: ACHN renal
UO-31 renal = tested on: UO-31 renal
MALME-3M melanoma = tested on: MALME-3M melanoma
COLO 205 colon = tested on: COLO 205 colon
MOLT-4 leukemia = tested on: MOLT-4 leukemia
SF-268 CNS = tested on: SF-268 CNS
SN12C renal = tested on: SN12C renal
TK-10 renal = tested on: TK-10 renal
SR leukemia = tested on: SR leukemia
PC-3 prostate = tested on: PC-3 prostate
A549 NSCLC = tested on: A549 NSCLC
NCI-H226 lung = tested on: NCI-H226 lung
SNB-75 CNS = tested on: SNB-75 CNS
MCF7 breast = tested on: MCF7 breast
A498 renal = tested on: A498 renal
NCI-H23 lung = tested on: NCI-H23 lung
EKVX NSCLC = tested on: EKVX NSCLC
MDA-MB-435 = tested on: MDA-MB-435
LOX IMVI melanoma = tested on: LOX IMVI melanoma
UACC-62 melanoma = tested on: UACC-62 melanoma
IGROV1 ovarian = tested on: IGROV1 ovarian
SK-MEL-2 melanoma = tested on: SK-MEL-2 melanoma
786-0 renal = tested on: 786-0 renal
HOP-92 NSCLC = tested on: HOP-92 NSCLC
HS 578T breast = tested on: HS 578T breast
BT-549 breast = tested on: BT-549 breast
OVCAR-3 ovarian = tested on: OVCAR-3 ovarian
RXF 393 renal = tested on: RXF 393 renal
SF-539 CNS = tested on: SF-539 CNS
NCI-H522 lung = tested on: NCI-H522 lung

## COc1ccc2/c(=C/c3ccc(N(C)C)cc3)c3cc(-c4ccccc4)[n+](C)n3c2c1
OVCAR-5 ovarian
  TGI: 1.44 µM
RPMI-8226 leukemia
  TGI: 0.912 µM
CAKI-1 renal
  TGI: 7.77 µM
SK-MEL-5 melanoma
  TGI: 0.292 µM
SNB-19 CNS
  TGI: 2.2 µM
MDA-N
  TGI: 0.475 µM
NCI/ADR-RES ovarian
  TGI: > 100 µM
CCRF-CEM leukemia
  TGI: 5.37 µM
HL-60(TB) leukemia
  TGI: 0.106 µM
M14 melanoma
  TGI: 1.16 µM
SW-620 colon
  TGI: 1.47 µM
KM12 colon
  TGI: 1.99 µM
K-562 leukemia
  TGI: 1.15 µM
HCC-2998 colon
  TGI: 1.08 µM
SF-295 CNS
  TGI: 2.51 µM
HCT-116 colon
  TGI: 1.37 µM
NCI-H460 lung
  TGI: 3.56 µM
OVCAR-8 ovarian
  TGI: 0.731 µM
SK-OV-3 ovarian
  TGI: 1.68 µM
MDA-MB-231 breast
  TGI: 1.66 µM
T-47D breast
  TGI: 2.77 µM
HT29 colon
  TGI: 0.624 µM
DU-145 prostate
  TGI: 1.77 µM
OVCAR-4 ovarian
  TGI: 4.19 µM
U251 CNS
  TGI: 1.27 µM
HCT-15 colon
  TGI: 3.28 µM
HOP-62 NSCLC
  TGI: 2.63 µM
UACC-257 melanoma
  TGI: 0.888 µM
ACHN renal
  TGI: 2.39 µM
UO-31 renal
  TGI: 5.2 µM
MALME-3M melanoma
  TGI: 0.579 µM
COLO 205 colon
  TGI: 0.236 µM
MOLT-4 leukemia
  TGI: 0.931 µM
SF-268 CNS
  TGI: 1.19 µM
SN12C renal
  TGI: 1.6 µM
TK-10 renal
  TGI: 1.43 µM
SR leukemia
  TGI: 0.962 µM
PC-3 prostate
  TGI: 0.543 µM

## CN1CCOC1c1ccccc1O (configuration not stated)
OVCAR-5 ovarian
  TGI: > 100 µM
RPMI-8226 leukemia
  TGI: > 100 µM
A549 NSCLC
  TGI: > 100 µM
CAKI-1 renal
  TGI: > 100 µM
SK-MEL-5 melanoma
  TGI: > 100 µM
SNB-19 CNS
  TGI: > 100 µM
NCI-H226 lung
  TGI: > 100 µM
SNB-75 CNS
  TGI: > 100 µM
MDA-N
  TGI: > 100 µM
NCI/ADR-RES ovarian
  TGI: > 100 µM
CCRF-CEM leukemia
  TGI: > 100 µM
M14 melanoma
  TGI: > 100 µM
MCF7 breast
  TGI: > 100 µM
SW-620 colon
  TGI: > 100 µM
A498 renal
  TGI: > 100 µM
NCI-H23 lung
  TGI: > 100 µM
EKVX NSCLC
  TGI: > 100 µM
KM12 colon
  TGI: > 100 µM
MDA-MB-435
  TGI: > 100 µM
LOX IMVI melanoma
  TGI: > 100 µM
K-562 leukemia
  TGI: > 100 µM
UACC-62 melanoma
  TGI: > 100 µM
SF-295 CNS
  TGI: > 100 µM
HCT-116 colon
  TGI: > 100 µM
NCI-H460 lung
  TGI: > 100 µM
OVCAR-8 ovarian
  TGI: > 100 µM
SK-OV-3 ovarian
  TGI: > 100 µM
MDA-MB-231 breast
  TGI: > 100 µM
T-47D breast
  TGI: > 100 µM
IGROV1 ovarian
  TGI: > 100 µM
HT29 colon
  TGI: > 100 µM
SK-MEL-2 melanoma
  TGI: > 100 µM
OVCAR-4 ovarian
  TGI: > 100 µM
U251 CNS
  TGI: > 100 µM
786-0 renal
  TGI: > 100 µM
HCT-15 colon
  TGI: > 100 µM
HOP-62 NSCLC
  TGI: > 100 µM
UACC-257 melanoma
  TGI: > 100 µM
ACHN renal
  TGI: > 100 µM
UO-31 renal
  TGI: > 100 µM
MALME-3M melanoma
  TGI: > 100 µM
COLO 205 colon
  TGI: > 100 µM
HOP-92 NSCLC
  TGI: > 100 µM
HS 578T breast
  TGI: > 100 µM
BT-549 breast
  TGI: > 100 µM
OVCAR-3 ovarian
  TGI: > 100 µM
MOLT-4 leukemia
  TGI: > 100 µM
RXF 393 renal
  TGI: > 100 µM
SF-268 CNS
  TGI: > 100 µM
TK-10 renal
  TGI: > 100 µM
SF-539 CNS
  TGI: > 100 µM
SR leukemia
  TGI: > 100 µM
NCI-H522 lung
  TGI: > 100 µM
PC-3 prostate
  TGI: > 100 µM

Reference: PubChem BioAssay (NCI)
